Data published in patent US5393768A, “Leukotriene antagonists” (Eli Lilly and Company, priority 1993, dated 1995).

Columns and labels:
[1] = tested on: LTD4 evoked contractions of guinea pig ileum; assay: Percent inhibition of LTD4 evoked ileal contractions (single submaximal LTD4 response, 5 minute drug exposure); format: cell-based, guinea pig (male, Hartley); details: Cavia porcellus; for inhibition at 1 µM: Compound concentration 1 × 10^-6 M; for inhibition at 0.1 µM: Compound concentration 1 × 10^-7 M; for inhibition at 0.3 µM: Compound concentration 3 × 10^-7 M; for inhibition at 3 µM: Compound concentration 3 × 10^-6 M; for inhibition at 0.03 µM: Compound concentration 3 × 10^-8 M; for inhibition at 0.01 µM: 5 min, Compound concentration 1 × 10^-8
Experimental: Male, Hartley guinea pigs weighing 200-450 grams were killed by decapitation. A section of terminal ileum was removed, the lumen cleaned, and the tissue divided into 2.5 cm. segments. The ilea were mounted in 10 ml. tissue baths containing Krebs-bicarbonate solution of the following composition in mmoles/-liter: KCl, 4.6; CaCl2 ·2H2 O, 1.2; KH2 PO4, 1.2; MgSO4 ·7H2 O, 1.2; NaCl, 118.2; NaHCO3, 24.8; and dextrose, 10.0. The bath fluid was maintained at 37° C. and aerated with 95 percent oxygen and 5 percent CO2. In addition, the buffer contained 1×10^-6 M atropine to reduce ileal spontaneous activity. Isometric measurements were made with a Grass FTO3C force-displacement transducer and recorded on a Grass polygraph as change in grams of force. A passive force of 0.5 g. was applied to the tissues. After an appropriate equilibration period, single submaximal control responses to pure LTD4 were obtained. Following a five minute exposure of the ileum to an experimental drug, the control concentration of LTD was added to the tissue bath. The response of the ileum to LTD4 in the presence of the drug was compared to the response in the absence of the drug.

[2] = biological target: T1, LTD4 evoked contractions of guinea pig ileum (Cavia porcellus, UniProt Q2NNR5); assay: LTD4 antagonism, cumulative concentration-response curves (Schild pA2); format: cell-based; details: 30 minute incubation, negative log of KB
T1 construct: A section of terminal ileum was removed, the lumen cleaned, and the tissue divided into 2.5 cm. segments; from tissue; host or cells: terminal ileum of male Hartley guinea pigs
T1 sequence (Q2NNR5 1-340): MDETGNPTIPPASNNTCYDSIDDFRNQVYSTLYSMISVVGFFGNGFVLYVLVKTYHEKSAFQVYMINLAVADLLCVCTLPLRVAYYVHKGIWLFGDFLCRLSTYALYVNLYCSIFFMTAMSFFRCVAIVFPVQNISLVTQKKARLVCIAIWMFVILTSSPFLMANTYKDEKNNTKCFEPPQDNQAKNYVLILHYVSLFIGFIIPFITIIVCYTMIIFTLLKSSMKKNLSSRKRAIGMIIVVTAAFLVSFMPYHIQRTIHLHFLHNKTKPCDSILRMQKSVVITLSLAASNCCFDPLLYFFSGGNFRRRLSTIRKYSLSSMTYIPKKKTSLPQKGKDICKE
Experimental: For some of the drugs in this series a more detailed analysis of LTD4 antagonism was made. In these experiments, cumulative concentration-response curves were obtained to LTD4 in guinea pig ileum and trachea. This was followed by a 30 minute incubation with various concentrations of the experimental drug. The concentration response curve to LTD4 was then repeated in the presence of the antagonist. Only one concentration of antagonist was used on a single tissue. KB values were calculated by the method of Furchgott [Ann. N.Y. Acad. Sci., 139, 553 (1967)] using the following equation. [formula]
Dose ratio refers to the concentration of agonist required to elicit 50 percent of the maximal response (ED50) in the presence of the antagonist divided by the ED50 in the absence of the antagonist. Calculations were performed with the aid of a computer and a digital plotter.

Compound | pA2 [2] | Kb [2] | inhibition at 1 µM [1] | inhibition at 0.1 µM [1] | inhibition at 0.3 µM [1] | inhibition at 3 µM [1] | inhibition at 0.03 µM [1] | inhibition at 0.01 µM [1]
CCCc1c(COc2ccc(C(=O)O)cc2)ccc(C(C)=O)c1O [Example 11, 4-(4-Acetyl-3-hydroxy-2-propylbenzyloxy)benzoic acid] | – | 234 nM | 75% | – | – | 94% | – | –
CCCc1c(COc2ccc(C(=O)O)c(O)c2)ccc(C(C)=O)c1O [Example 13, 4-(4-Acetyl-3-hydroxy-2-propylbenzyloxy)-2-hydroxybenzoic acid] | – | 26.9 nM | 97% | 69% | 85% | – | 59% | 30%
CCCc1c(COc2cccc(C(=O)O)c2)ccc(C(C)=O)c1O [Example 14, 3-(4-Acetyl-3-hydroxy-2-propylbenzyloxy)benzoic acid] | – | 1780 nM | 31% | – | – | 67% | – | –
CCCc1c(COc2ccc(CCC(=O)O)cc2)ccc(C(C)=O)c1O [Example 15, 3-[4-(4-Acetyl-3-hydroxy-2-propylbenzyloxy)phenyl]propionic acid] | – | 26.3 nM | 79% | 59% | 76% | – | – | –
CCCc1c(COc2ccc(C(=O)O)cc2)ccc(C(=O)c2ccccc2)c1O [Example 17, 4-(4-Benzoyl-3-hydroxy-2-propylbenzyloxy)benzoic acid] | – | 4470 nM | 5% | – | – | 35% | – | –
CCCCC(=O)c1ccc(COc2ccc(CC(=O)O)cc2)c(CCC)c1O [Example 18, 4-(4-Pentanoyl-3-hydroxy-2-propylbenzyloxy)phenylacetic acid] | – | 2090 nM | 21% | – | – | 65% | – | –
CCCc1c(COc2ccc(-c3nnn[nH]3)cc2)ccc(C(C)=O)c1O [Example 32, 5-[4-(4-Acetyl-3-hydroxy-2-propylbenzyloxy)phenyl]tetrazole] | – | 7.76 nM | 94% | 83% | 94% | – | – | –
CCCc1c(COc2ccc(-c3nnn[nH]3)c(O)c2)ccc(C(C)=O)c1O [Example 34, 5-[4-(4-Acetyl-3-hydroxy-2-propylbenzyloxy)-2-hydroxyphenyl]-tetrazole] | – | 8.71 nM | – | 97% | 98% | – | 80% | 50%
CCCc1c(COc2ccc(CCc3nnn[nH]3)cc2)ccc(C(C)=O)c1O [Example 35, 5-[2-(4-[4-Acetyl-3-hydroxy-2-propylbenzyloxy]phenyl)ethyl]-tetrazole] | – | 8.32 nM | – | 84% | 90% | – | 63% | –
CCCc1c(COc2ccc(C(C)c3nnn[nH]3)cc2)ccc(C(C)=O)c1O (centres unmarked) [Example 36, 5-[1-(4-[4-Acetyl-3-hydroxy-2-propylbenzyloxy]phenyl)ethyl]-tetrazole] | – | 12.6 nM | 94% | 89% | 90% | – | 70% | 44%
CCCc1c(COc2ccc(C(C)(C)c3nnn[nH]3)cc2)ccc(C(C)=O)c1O [Example 37, 5-[4-(4-Acetyl-3-hydroxy-2-propylbenzyloxy)-α,α-dimethylbenzyl]-tetrazole] | – | 17.4 nM | – | 81% | 90% | – | 56% | –
CC(=O)c1ccc(COc2ccc(-c3nnn[nH]3)cc2)c(C)c1O [Example 39, 5-[4-(4-Acetyl-3-hydroxy-2-methylbenzyloxy)phenyl]-tetrazole] | – | 91.2 nM | 90% | – | 70% | – | – | –
CCCc1c(COc2ccc3cc(-c4nn[nH]n4)ccc3c2)ccc(C(C)=O)c1O [Example 41, 5-[2-(6-[4-Acetyl-3-hydroxy-2-propylbenzyloxy]naphthyl)]-tetrazole] | – | 12.3 nM | – | 90% | – | – | – | 46%
CCCc1c(CNc2ccc(Cc3nnn[nH]3)cc2)ccc(C(C)=O)c1O [Example 43, 5-[4-(4-Acetyl-3-hydroxy-2-propylbenzylamino)benzyl]tetrazole] | – | 31.6 nM | – | 77% | – | – | 49% | –
CCCc1c(C=Cc2ccc(-c3nn[nH]n3)cc2)ccc(C(C)=O)c1O [Example 45, 5-[4-(2-[4-Acetyl-3-hydroxy-2-propylphenyl]ethenyl)phenyl]-tetrazole] | – | 186 nM | 74% | – | 57% | – | – | –
CCCc1c(CNc2ccc(C(=O)O)cc2)ccc(C(C)=O)c1O [Example 47, 4-(4-Acetyl-3-hydroxy-2-propylbenzylamino)benzoic acid] | – | 490 nM | 70% | – | 36% | – | – | –

Second part, led by results:

pA2 [2] | Kb [2] | Compound | inhibition at 1 µM [1] | inhibition at 0.1 µM [1] | inhibition at 0.3 µM [1] | inhibition at 3 µM [1] | inhibition at 0.03 µM [1] | inhibition at 0.01 µM [1]
7.42 | – | CCCc1c(COc2ccc3c(=O)cc(C(=O)O)oc3c2CCC)ccc(C(C)=O)c1O [Example 10, 7-(4-Acetyl-3-hydroxy-2-propylbenzyloxy)-4-oxo-8-propyl-4H-1-benzopyran-2-carboxylic acid] | 97% | 62% | 86% | – | – | –
– | 60.3 nM | CCCc1c(COc2ccc(CC(=O)O)cc2)ccc(C(C)=O)c1O [Example 12, 4-(4-Acetyl-3-hydroxy-2-propylbenzyloxy)phenylacetic acid] | 91% | 66% | 77% | – | 37% | –
– | 87.1 nM | CCCc1c(COc2ccc(OCC(=O)O)cc2)ccc(C(C)=O)c1O [Example 16, 4-(4-Acetyl-3-hydroxy-2-propylbenzyloxy)phenoxyacetic acid] | 88% | 54% | 88% | – | – | –
– | 7.59 nM | CCCc1c(COc2ccc(Cc3nnn[nH]3)cc2)ccc(C(C)=O)c1O [Example 33, 5-[4-(4-Acetyl-3-hydroxy-2-propylbenzyloxy)benzyl]-tetrazole] | 100% | 92% | 94% | – | 81% | 31%
– | 316 nM | CCCc1c(CSCc2ccc(-c3nnn[nH]3)cc2)ccc(C(C)=O)c1O [Example 38, 5-[4-(4-Acetyl-3-hydroxy-2-propylbenzylthiomethyl)phenyl]-tetrazole] | – | 29% | 51% | – | – | –
– | 20 nM | CCCc1c(CSc2ccc(-c3nnn[nH]3)cc2)ccc(C(C)=O)c1O [Example 40, 5-[4-(4 -Acetyl-3-hydroxy-2-propylbenzylthio)phenyl]-tetrazole] | – | 79% | – | – | 58% | –
– | 20 nM | CC(=O)c1ccc(COc2ccc(Cc3nnn[nH]3)cc2)c(CC(C)C)c1O [Example 42, 5-(4-[4-Acetyl-3-hydroxy-2-(2-methylpropyl)benzyloxy]benzyl)-tetrazole] | – | 86% | 88% | – | 60% | 34%
– | 12.6 nM | CCc1c(COc2ccc(Cc3nnn[nH]3)cc2)ccc(C(C)=O)c1O [Example 44, 5-[4-(4-Acetyl-3-hydroxy-2-ethylbenzyloxy)benzyl)-tetrazole] | – | 88% | – | – | 78% | 41%
– | 550 nM | CCCc1c(COCCCCc2nnn[nH]2)ccc(C(C)=O)c1O [Example 49, 5-[4-(4-Acetyl-3-hydroxy-2-propylbenzyloxy)butyl]-tetrazole] | 64% | – | 36% | – | – | –
– | 49 nM | CCCc1c(COCCOc2ccc(-c3nnn[nH]3)cc2)ccc(C(C)=O)c1O [Example 52, 5-(4-[2-(4-Acetyl-3-hydroxy-2-propylbenzyloxy)ethoxy]phenyl)-tetrazole] | – | 67% | 83% | – | 39% | –
